The test system of one experiment is mouse. Nature of the experiment: Behavioural despair test in the mouse (forced swim; duration of immobility and latency to immobility). Format: in vivo, Male Rj: NMRI mice. To be noted: for DURATION OF IMMOBILITY % change / LATENCY % change: (a) compared with vehicle control. On the procedure:
Male Rj: NMRI mice (Elevage Janvier, 53940 Le Genest-Saint-Isle, France) having a body weight of between 22 and 29 g were used in the study. The mice were stabilised for 5 days prior to assessment with free access to food and water. […] […] The control vehicle was distilled water. The substances were evaluated in comparison with the control vehicle and were administered dissolved in distilled water.
The method, which detects antidepressant activity, follows that described by Porsolt et al (Arch. Int. Pharmacodyn., 1977, 229, 327-336). Mice forced to swim in a situation from which they cannot escape rapidly become immobile. Antidepressants decrease the duration of immobility.
Mice were individually placed in a cylinder (height=24 cm; diameter=13 cm) containing 10 cm water (22° C.) from which they cannot escape. The mice were placed in the water for 6 minutes and the duration of immobility during the last 4 minutes was measured. The latency to the first bout of immobility was also recorded.
10 mice were studied per group. The test was performed blind.
L-lysine-d-amphetamine (Vyvanse) (8, 16 and 32 mg/kg) was administered 90 minutes before the test, alone or in combination and compared with a vehicle control group.
Imipramine (128 mg/kg p.o.), administered under the same experimental conditions, was used as a reference substance.
Data were analysed by comparing treated groups with vehicle control using unpaired Student's t tests. In addition, groups treated with combinations of substances were compared with groups administered appropriate substances alone using unpaired Student's t tests.
The mouse behavioural despair test is based on the observation that mice, when forced to swim in a situation from which there is no escape, after an initial period of vigorous activity will eventually cease to move altogether making only those movements necessary to keep the head above the water. This behavioural immobility is thought to indicate a state of despair in which the mice have learned that escape is impossible and have resigned themselves to the experimental conditions. This immobility is reduced by anti-depression treatments.

The test system of the next experiment is mice. Nature of the experiment: Light-dark box test of anxiety. Format: in vivo. The following applies: 16 and 32 mg/kg, alone. From the text:
The light/dark test is based on the innate aversion of rodents to brightly/illuminated areas and on the spontaneous exploratory behaviour of rodents in response to mild stress, that is, novel environment and light. The test apparatus consists of a compartment box divided between a dark safe compartment and an illuminated aversive compartment.

Where [1] appears, read: Table 2, 128 mg/kg p.o. -60 min.
Where [2] appears, read: Table 3, 128 mg/kg p.o. -90 min.

Turning to `CN(C)CCCN1c2ccccc2CCc2ccccc21` [Imipramine], in the experiment on mouse (setting [1]), the “DURATION OF IMMOBILITY mean ± s.e.m.” value amounted to 70.4 ± 21.4 s, the “LATENCY mean ± s.e.m.” value came to 243.6 ± 32.7 s, the “DURATION OF IMMOBILITY % change” value is −67% and the LATENCY % change result is given as “+277%”. For the same compound, in the experiment on mouse (setting [2]), the “DURATION OF IMMOBILITY mean ± s.e.m.” value was 100.6 ± 23.5 s and the “DURATION OF IMMOBILITY % change” value is given as −48%.
As to `C[C@@H](Cc1ccccc1)NC(=O)[C@@H](N)CCCCN` [Vyvanse, N-[(1S)-1-methyl-2-phenylethyl]-L-lysinamide], in the experiment with mice, the anxiogenic activity entry is listed as “absence of any anxiogenic activity”. Besides, the antidepressant-like activity entry in the experiment with mouse (16 and 32 mg/kg, alone) is reported as “presence of antidepressant-like activity”. The “DURATION OF IMMOBILITY mean ± s.e.m.” value is 173.6 ± 18.8 s in the experiment on mouse (Table 2, 16 mg/kg p.o. -60 min); 160.3 ± 22.6 s with mouse (Table 2, 32 mg/kg p.o. -60 min); 208.0 ± 7.3 s in the experiment on mouse (Table 3, 8 mg/kg p.o. -90 min); 176.8 ± 14.8 s in the experiment with mouse (Table 3, 16 mg/kg p.o. -90 min); 123.1 ± 20.8 s in the experiment with mouse (Table 3, 32 mg/kg p.o. -90 min). Besides, the “LATENCY mean ± s.e.m.” value in the experiment with mouse (Table 2, 16 mg/kg p.o. -60 min) came out at 100.0 ± 21.3 s; in the experiment on mouse (Table 2, 32 mg/kg p.o. -60 min) it was 104.3 ± 18.2 s. Besides, the “DURATION OF IMMOBILITY % change” value in the experiment with mouse (Table 2, 16 mg/kg p.o. -60 min) is −19%; in the experiment on mouse (Table 2, 32 mg/kg p.o. -60 min), −25%; in the experiment with mouse (Table 3, 8 mg/kg p.o. -90 min), “+7%”; in the experiment on mouse (Table 3, 16 mg/kg p.o. -90 min), −9%; with mouse (Table 3, 32 mg/kg p.o. -90 min), −37%. Moreover, the LATENCY % change result in the experiment on mouse (Table 2, 16 mg/kg p.o. -60 min) is given as “+55%”; in the experiment with mouse (Table 2, 32 mg/kg p.o. -60 min) it was “+61%”.
On to `CN[C@H]1CC[C@@H](c2ccc(Cl)c(Cl)c2)c2ccccc21` [Sertraline, sertraline], for which, in the experiment on mouse (Table 3, 16 mg/kg p.o. -90 min), the “DURATION OF IMMOBILITY mean ± s.e.m.” value amounted to 162.7 ± 27.5 s and the “DURATION OF IMMOBILITY % change” value is −16%.

Source of the values: US20100303903A1, “METHODS OF ENHANCING SELECTIVE SEROTONIN REUPTAKE INHIBITOR EFFECTS IN MAMMALS” (SHIRE LLC, priority 2009, published 2010).
